Source: the supplement of paper PMC11451515

Experiments:
Conditions in all cases: 48 h
P12-Ichikawa [1] = assay: AUC of viability dose-response curve (% viability x log10 dose units); higher = less sensitive
Method in brief: (§1)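 Seeding of medium-adapted leukemia cells was at 500 or 1000 cells/well in 1536-well plates, followed by 48 h at 37°C with library compounds in DMSO at 11 threefold doses from 47 μM to 0.79 nM. CellTiter-Glo One luminescence was normalised per plate to DMSO and cell-free wells and fitted as a four-parameter log-logistic function of log10 dose. Area under the curve was integrated by trapezoidal rule, with curves exceeding full viability scaled and curves failing quality control removed.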

NOMO1 [2] = assay: as above
Method in brief: as §1

SEM cells [3] = assay: cell viability relative to DMSO control; higher = less cytotoxic
Method in brief: (§2)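 Library compounds in DMSO were pin-dosed in an 11-point threefold series (47 μM to 0.79 nM) onto leukemia cells in 1536-well plates (5 μl). Plates held 500 cells/well of NOMO1 or SEM or 1000 cells/well of P12-Ichikawa, each adapted for at least four passages in each medium. Luminescence was read with CellTiter-Glo One after 48 h at 37°C. Viability means the per-plate percentage relative to DMSO wells, using cell-free wells as background.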

P12-Ichikawa [4] = assay: as above
Method in brief: as §2

NOMO1 [5] = assay: as above
Method in brief: as §2

SEM cells [6] = assay: AUC of viability dose-response curve (% viability x log10 dose units); higher = less sensitive
Method in brief: as §1

FC1=CC=C(C=C1)N2/C=C\C=C(C(=O)NC3=CC=C(OC4=C5C=C[NH]C5=NC=C4)C(=C3)F)/C2=O
AUC of viability dose-response curve
Conditions	HPLM + 10% dialyzed FBS	RPMI 5 mM glucose + 10% FBS	RPMI 5 mM glucose + 10% dialyzed FBS
NOMO1 [2]	445	456	459
P12-Ichikawa [1]	465	459	466

cell viability [%]
Conditions	NOMO1 [5]	P12-Ichikawa [4]	SEM cells [3]
HPLM + 10% dialyzed FBS, 0.000781 µM	97	99	92.6
HPLM + 10% dialyzed FBS, 0.00234 µM	117	111	101
HPLM + 10% dialyzed FBS, 0.00702 µM	106	107	104
HPLM + 10% dialyzed FBS, 0.0211 µM	108	114	112
HPLM + 10% dialyzed FBS, 0.0632 µM	104	117	106
HPLM + 10% dialyzed FBS, 0.19 µM	144	118	109
HPLM + 10% dialyzed FBS, 0.569 µM	114	122	115
HPLM + 10% dialyzed FBS, 1.71 µM	124	112	107
HPLM + 10% dialyzed FBS, 5.12 µM	119	114	99.9
HPLM + 10% dialyzed FBS, 15.4 µM	122	123	77.3
HPLM + 10% dialyzed FBS, 46.1 µM	112	115	75.4
RPMI 5 mM glucose + 10% FBS, 0.000781 µM	104	104	72.6
RPMI 5 mM glucose + 10% FBS, 0.00234 µM	111	111	69.9
RPMI 5 mM glucose + 10% FBS, 0.00702 µM	109	121	65.1
RPMI 5 mM glucose + 10% FBS, 0.0211 µM	110	112	76
RPMI 5 mM glucose + 10% FBS, 0.0632 µM	112	132	67.1
RPMI 5 mM glucose + 10% FBS, 0.19 µM	125	119	68.1
RPMI 5 mM glucose + 10% FBS, 0.569 µM	116	128	73
RPMI 5 mM glucose + 10% FBS, 1.71 µM	138	122	71.6
RPMI 5 mM glucose + 10% FBS, 5.12 µM	115	127	60.5
RPMI 5 mM glucose + 10% FBS, 15.4 µM	101	119	46.9
RPMI 5 mM glucose + 10% FBS, 46.1 µM	120	111	40
RPMI 5 mM glucose + 10% dialyzed FBS, 0.000781 µM	96.1	109	101
RPMI 5 mM glucose + 10% dialyzed FBS, 0.00234 µM	92.7	107	96.9
RPMI 5 mM glucose + 10% dialyzed FBS, 0.00702 µM	94.5	114	98.7
RPMI 5 mM glucose + 10% dialyzed FBS, 0.0211 µM	107	125	111
RPMI 5 mM glucose + 10% dialyzed FBS, 0.0632 µM	108	117	119
RPMI 5 mM glucose + 10% dialyzed FBS, 0.19 µM	108	124	111
RPMI 5 mM glucose + 10% dialyzed FBS, 0.569 µM	102	125	121
RPMI 5 mM glucose + 10% dialyzed FBS, 1.71 µM	124	119	102
RPMI 5 mM glucose + 10% dialyzed FBS, 5.12 µM	106	129	95.7
RPMI 5 mM glucose + 10% dialyzed FBS, 15.4 µM	115	120	74.8
RPMI 5 mM glucose + 10% dialyzed FBS, 46.1 µM	108	114	55.4

ClC1=C[NH]N=C1C\2NC(=N\C3=C2C(=O)CCC3)/NC4=NC5=CC=CC=C5O4 (stereo unspecified)
AUC of viability dose-response curve
Conditions	NOMO1 [2]	P12-Ichikawa [1]	SEM cells [6]
HPLM + 10% dialyzed FBS	457	464	460
RPMI 5 mM glucose + 10% FBS	463	453	452
RPMI 5 mM glucose + 10% dialyzed FBS	465	455	441

CC(C)(C#N)c1cc(Cn2cncn2)cc(C(C)(C)C#N)c1
P12-Ichikawa [1]
Conditions	AUC of viability dose-response curve
HPLM + 10% dialyzed FBS	466
RPMI 5 mM glucose + 10% FBS	456
RPMI 5 mM glucose + 10% dialyzed FBS	442

cell viability [%]
Conditions	NOMO1 [5]	P12-Ichikawa [4]	SEM cells [3]
HPLM + 10% dialyzed FBS, 0.000781 µM	–	120	101
HPLM + 10% dialyzed FBS, 0.00234 µM	–	119	92.6
HPLM + 10% dialyzed FBS, 0.00702 µM	–	117	87.4
HPLM + 10% dialyzed FBS, 0.0211 µM	–	119	103
HPLM + 10% dialyzed FBS, 0.0632 µM	–	117	111
HPLM + 10% dialyzed FBS, 0.19 µM	–	116	104
HPLM + 10% dialyzed FBS, 0.569 µM	–	115	21.8
HPLM + 10% dialyzed FBS, 1.71 µM	–	115	112
HPLM + 10% dialyzed FBS, 5.12 µM	–	113	116
HPLM + 10% dialyzed FBS, 15.4 µM	–	108	117
HPLM + 10% dialyzed FBS, 46.1 µM	–	97	113
RPMI 5 mM glucose + 10% FBS, 0.000781 µM	123	130	123
RPMI 5 mM glucose + 10% FBS, 0.00234 µM	106	118	116
RPMI 5 mM glucose + 10% FBS, 0.00702 µM	102	121	115
RPMI 5 mM glucose + 10% FBS, 0.0211 µM	111	129	102
RPMI 5 mM glucose + 10% FBS, 0.0632 µM	109	120	109
RPMI 5 mM glucose + 10% FBS, 0.19 µM	106	124	106
RPMI 5 mM glucose + 10% FBS, 0.569 µM	127	128	21.3
RPMI 5 mM glucose + 10% FBS, 1.71 µM	114	131	122
RPMI 5 mM glucose + 10% FBS, 5.12 µM	44.2	113	126
RPMI 5 mM glucose + 10% FBS, 15.4 µM	106	112	125
RPMI 5 mM glucose + 10% FBS, 46.1 µM	107	112	111

O=C1NC(=O)/C(=C\c2ccc(-c3ccc(F)cc3)o2)S1
AUC of viability dose-response curve
Conditions	NOMO1 [2]	P12-Ichikawa [1]	SEM cells [6]
HPLM + 10% dialyzed FBS	415	436	455
RPMI 5 mM glucose + 10% FBS	462	445	462
RPMI 5 mM glucose + 10% dialyzed FBS	444	455	457

COCC1(CO)C(=O)C2CCN1CC2 (stereo unspecified)
AUC of viability dose-response curve
Conditions	HPLM + 10% dialyzed FBS	RPMI 5 mM glucose + 10% FBS	RPMI 5 mM glucose + 10% dialyzed FBS
NOMO1 [2]	435	446	462
P12-Ichikawa [1]	413	414	421

cell viability [%]
Conditions	NOMO1 [5]	P12-Ichikawa [4]	SEM cells [3]
HPLM + 10% dialyzed FBS, 0.000781 µM	116	90.6	76.2
HPLM + 10% dialyzed FBS, 0.00234 µM	106	103	81.7
HPLM + 10% dialyzed FBS, 0.00702 µM	103	105	112
HPLM + 10% dialyzed FBS, 0.0211 µM	123	112	93.8
HPLM + 10% dialyzed FBS, 0.0632 µM	104	108	96.3
HPLM + 10% dialyzed FBS, 0.19 µM	121	109	104
HPLM + 10% dialyzed FBS, 0.569 µM	92.4	85.3	4.05
HPLM + 10% dialyzed FBS, 1.71 µM	130	103	73.6
HPLM + 10% dialyzed FBS, 5.12 µM	105	81.9	87.1
HPLM + 10% dialyzed FBS, 15.4 µM	60.1	37.7	71
HPLM + 10% dialyzed FBS, 46.1 µM	31.7	4.42	10.3
RPMI 5 mM glucose + 10% FBS, 0.000781 µM	91.9	92.7	102
RPMI 5 mM glucose + 10% FBS, 0.00234 µM	95.4	109	105
RPMI 5 mM glucose + 10% FBS, 0.00702 µM	102	109	137
RPMI 5 mM glucose + 10% FBS, 0.0211 µM	106	110	134
RPMI 5 mM glucose + 10% FBS, 0.0632 µM	107	106	137
RPMI 5 mM glucose + 10% FBS, 0.19 µM	104	117	144
RPMI 5 mM glucose + 10% FBS, 0.569 µM	103	95.2	3.64
RPMI 5 mM glucose + 10% FBS, 1.71 µM	100	104	111
RPMI 5 mM glucose + 10% FBS, 5.12 µM	111	77.8	99.3
RPMI 5 mM glucose + 10% FBS, 15.4 µM	79	53.6	77.2
RPMI 5 mM glucose + 10% FBS, 46.1 µM	18.1	6.98	5.79
RPMI 5 mM glucose + 10% dialyzed FBS, 0.000781 µM	93.8	103	70.2
RPMI 5 mM glucose + 10% dialyzed FBS, 0.00234 µM	110	104	85.2
RPMI 5 mM glucose + 10% dialyzed FBS, 0.00702 µM	94.6	109	118
RPMI 5 mM glucose + 10% dialyzed FBS, 0.0211 µM	98.8	115	105
RPMI 5 mM glucose + 10% dialyzed FBS, 0.0632 µM	115	107	124
RPMI 5 mM glucose + 10% dialyzed FBS, 0.19 µM	108	112	116
RPMI 5 mM glucose + 10% dialyzed FBS, 0.569 µM	90.9	96.4	3.95
RPMI 5 mM glucose + 10% dialyzed FBS, 1.71 µM	94.6	101	90.6
RPMI 5 mM glucose + 10% dialyzed FBS, 5.12 µM	104	81.8	103
RPMI 5 mM glucose + 10% dialyzed FBS, 15.4 µM	94.8	64.2	61.8
RPMI 5 mM glucose + 10% dialyzed FBS, 46.1 µM	50.2	23	16.9
